Source: US11214803B2, “Modulators of YAP1 expression” (Ionis Pharmaceuticals, Inc., priority 2019, dated 2022)
Strand notation (5' to 3'): a small letter for the sugar, then the base; units joined by * are phosphorothioate-linked, units joined directly phosphodiester-linked; [ ] holds rarer units or linkages, { } end groups; capitals alone tell only the bases. e = 2'-O-(2-methoxyethyl) (MOE); k = constrained ethyl (cEt); [5mC] = 5-methylcytosine; d = 2'-deoxy (DNA); m = 2'-O-methyl

system: Yap1 mRNA; test: Antisense inhibition of human Yap1 in SNU-449 cells by modified oligonucleotides, single dose (Example 5, RTS36584); format: cell-based; settings: Table 39; SNU-449 cells, 10,000 cells per well, free uptake, 2,000 nM oligonucleotide, approx. 48 hours; RTS36584; normalized to RIBOGREEN; Yap1 mRNA relative to untreated control
Procedure, shortened: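 Values are % of untreated control: Yap1 mRNA by quantitative RT-PCR (RTS36584), normalized to RIBOGREEN total RNA. Oligonucleotides were dosed at 2,000 nM, free uptake, in SNU-449 cells, with roughly 48 h exposure before RNA isolation.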

In order of falling “YAP1 (% UTC)” value:
1. 1198417 (k[5mC]*dA*dG*dA*dT*dT*dT*dA*dG*dG*dA*kT*eG*k[5mC]*eA*kT; antisense) [Compound 1198417]  40 % UTC
2. 1198449 (kA*dA*dG*dT*dA*dA*dG*dG*dT*dT*dT*k[5mC]*e[5mC]*k[5mC]*eA*kG; antisense) [Compound 1198449]  37 % UTC
3. 1198415 (kG*dA*dT*dT*dT*dA*dG*dG*dA*dT*dG*k[5mC]*eA*kT*eG*kG; antisense) [Compound 1198415]  29 % UTC
4. 1198381 (kT*dA*dG*dA*dG*dT*dA*dT*dG*dT*dG*kG*e[5mC]*kA*eA*kT; antisense) [Compound 1198381]  19 % UTC

same assay, conditions: Table 40 (separate experiment); SNU-449 cells, 10,000 cells per well, free uptake, 2,000 nM oligonucleotide, approx. 48 hours; RTS36584; normalized to RIBOGREEN; Yap1 mRNA relative to untreated control

In order of rising “YAP1 (% UTC)” value:
1. 1198439 (kA*dG*dT*dG*dT*dA*dT*dG*dT*d[5mC]*dA*kG*eA*kA*eG*kA; antisense) [Compound 1198439]  6 % UTC
2. 1198723 (kA*eG*kT*dA*dT*dG*dT*dG*dG*d[5mC]*dA*dA*eT*eA*kA*kT; antisense) [Compound 1198723]  57 % UTC

same assay, conditions: Table 41; SNU-449 cells, 10,000 cells per well, free uptake, 2,000 nM modified oligonucleotide, approximately 48 hours; RTS36584; normalized to RIBOGREEN; Yap1 mRNA relative to untreated control cells

In order of rising “YAP1 (% UTC)” value:
1. 1198641 (kA*kT*dT*dA*dG*dA*dG*dT*dA*dT*dG*dT*kG*eG*k[5mC]*eA; antisense) [Compound 1198641]  15 % UTC
2. 1198737 (k[5mC]*eT*kG*dA*dG*dG*dT*dA*dT*dA*dA*d[5mC]*eT*eG*kG*kG; antisense) [Compound 1198737]  24 % UTC
3. 1198634 (kT*kG*dG*dA*dA*dA*dT*dT*dG*dT*d[5mC]*dT*k[5mC]*eA*kT*eG; antisense) [Compound 1198634]  34 % UTC
4. 1198675 (antisense k[5mC]*kA*dG*dA*dT*dT*dT*dA*dG*dG*dA*dT*kG*e[5mC]*kA*eT) [Compound 1198675]  35 % UTC
5. 1198654 (kA*k[5mC]*dT*dT*dT*dT*dA*d[5mC]*dA*dT*dT*dA*kG*eG*kA*eA; antisense) [Compound 1198654]  91 % UTC

same assay, conditions: Table 42 (separate experiment); SNU-449 cells, 10,000 cells per well, free uptake, 2,000 nM modified oligonucleotide, approximately 48 hours; RTS36584; normalized to RIBOGREEN; Yap1 mRNA relative to untreated control cells

In order of falling “YAP1 (% UTC)” value:
1. 1198222 (kT*kT*dT*dT*dA*d[5mC]*dA*dT*dT*dA*dG*eG*eA*eA*k[5mC]*kA) [Compound 1198222]  87 % UTC
2. 1198228 (kA*kA*dG*d[5mC]*dA*d[5mC]*dT*dT*dT*dT*dA*e[5mC]*eA*eT*kT*kA) [Compound 1198228]  54 % UTC
3. 1198681 (antisense T_{ks}C_{ks}T_{ds}T_{ds}A_{ds}T_{ds}A_{ds}T_{ds}G_{ds}G_{ds}T_{ds}T_{ds}T_{ks}T_{es}G_{ks}T_{e}; as printed in the source, key not given here) [Compound 1198681]  54 % UTC
4. 1198706 (kA*kG*dT*dA*dA*dG*dG*dT*dT*dT*d[5mC]*d[5mC]*k[5mC]*eA*kG*eA; antisense) [Compound 1198706]  39 % UTC
5. 1198700 (kT*kA*dA*dA*dG*dT*dG*dT*dA*dT*dG*dT*k[5mC]*eA*kG*eA; antisense) [Compound 1198700]  26 % UTC
6. 1198211 (kA*kT*dT*dA*dG*dA*dG*dT*dA*dT*dG*eT*eG*eG*k[5mC]*kA; antisense) [Compound 1198211]  19 % UTC

same assay, conditions: Table 43 experiment; SNU-449 cells, 10,000 cells per well, free uptake, 2,000 nM, approximately 48 hours; RTS36584; Yap1 mRNA normalized to RIBOGREEN, relative to untreated control cells

In order of rising “YAP1 (% UTC)” value:
1. 1198458 (kA*kA*dT*dT*dG*dT*d[5mC]*dT*d[5mC]*dA*dT*eG*k[5mC]*e[5mC]*kT*eT) [Compound 1198458]  30 % UTC
2. 1095595 (antisense k[5mC]*kA*d[5mC]*dT*dG*dA*dG*dG*dT*dA*dT*eA*eA*e[5mC]*kT*kG) [Compound 1095595]  63 % UTC

same assay, conditions: Table 44 experiment; SNU-449 cells, 10,000 cells per well, free uptake, 2,000 nM, approximately 48 hours; RTS36584; Yap1 mRNA normalized to RIBOGREEN, relative to untreated control cells

In order of rising “YAP1 (% UTC)” value:
1. 1198890 (kT*kG*dT*d[5mC]*dT*d[5mC]*dA*dT*dG*d[5mC]*d[5mC]*kT*dT*kA*dT*kA) [Compound 1198890]  19 % UTC
2. 1198519 (kG*kT*dA*dA*dT*dA*dT*dT*dG*d[5mC]*dA*eA*kT*e[5mC]*kT*eG; antisense) [Compound 1198519]  20 % UTC

same assay, conditions: Table 45; Yap1 mRNA as percent of untreated control, SNU-449 cells, single dose

In order of rising “YAP1 (% UTC)” value:
1. 1198938 (kT*k[5mC]*dA*dG*dA*dT*dT*dT*dA*dG*dG*kA*dT*kG*d[5mC]*kA; antisense) [Compound 1198938]  59 % UTC
2. 1198908 (kT*kA*dT*dA*dA*d[5mC]*dT*dG*dG*dG*d[5mC]*kA*dA*kA*dT*kT; antisense) [Compound 1198908]  124 % UTC

same assay, conditions: Table 46; Yap1 mRNA as percent of untreated control, SNU-449 cells, single dose

In order of rising “YAP1 (% UT)” value:
1. 1198832 (kG*k[5mC]*dA*d[5mC]*dT*dT*dT*dT*dA*d[5mC]*dA*kT*eT*kA*eG*kG; antisense) [Compound 1198832]  20 % UT
2. 1198804 (antisense kT*kG*dT*d[5mC]*dT*d[5mC]*dA*dT*dG*d[5mC]*d[5mC]*kT*eT*kA*eT*kA) [Compound 1198804]  22 % UT
3. 1198822 (kT*kA*dT*dA*dA*d[5mC]*dT*dG*dG*dG*d[5mC]*kA*eA*kA*eT*kT; antisense) [Compound 1198822]  97 % UT

same assay, conditions: Table 48; Yap1 mRNA level relative to untreated control; modified oligonucleotides targeting SEQ ID NO.: 1 and 2

“1197218 (antisense kT*kT*kT*dA*dA*dA*dG*dT*dG*dT*dA*dT*dG*kT*k[5mC]*kA) [Compound 1197218]” was tested, and the “YAP1 (% UT)” value was 29 % UT.

same assay, conditions: Table 49; Yap1 mRNA level relative to untreated control; modified oligonucleotides targeting SEQ ID NO.: 1 and 2

In order of rising “YAP1 (% UT)” value:
1. 1198550 (antisense kA*kT*kA*dT*dG*dG*dA*dA*dA*dT*dT*dG*kT*k[5mC]*kT*e[5mC]) [Compound 1198550]  17 % UT
2. 1198545 (antisense kA*kA*kA*dT*dT*dG*dT*d[5mC]*dT*d[5mC]*dA*dT*kG*k[5mC]*k[5mC]*eT) [Compound 1198545]  32 % UT
3. 1198304 (kA*kG*kG*dT*dA*dT*dA*dA*d[5mC]*dT*dG*dG*kG*e[5mC]*kA*eA; antisense) [Compound 1198304]  33 % UT
4. 1198558 (antisense kT*kA*kT*dA*dT*dT*dA*dG*dA*dG*dT*dA*kT*kG*kT*eG) [Compound 1198558]  46 % UT
5. 1198559 (antisense kT*k[5mC]*kT*dA*dT*dA*dT*dT*dA*dG*dA*dG*kT*kA*kT*eG) [Compound 1198559]  55 % UT
6. 1198360 (kA*kA*k[5mC]*dT*dT*dT*dA*dA*dA*dG*dT*dG*kT*eA*kT*eG; antisense) [Compound 1198360]  74 % UT

same assay, conditions: Table 50; Yap1 mRNA remaining as percent of untreated control (UT), SNU-449 cells, single dose

In order of falling “YAP1 (% UT)” value:
1. 1197291 (k[5mC]*kT*kT*dT*mU*dA*d[5mC]*dA*dT*dT*dA*dG*dG*kA*kA*k[5mC]; antisense) [Compound 1197291]  83 % UT
2. 1198621 (kA*kA*kG*dT*dA*dA*dG*dG*dT*dT*dT*d[5mC]*k[5mC]*k[5mC]*kA*eG; antisense) [Compound 1198621]  80 % UT
3. 1198607 (antisense kA*kT*kG*dT*dA*dA*dT*dA*dT*dT*dG*d[5mC]*kA*kA*kT*e[5mC]) [Compound 1198607]  77 % UT
4. 1197244 (antisense kT*kT*kA*d[5mC]*mA*dT*dT*dA*dG*dG*dA*dA*d[5mC]*kA*kA*kG) [Compound 1197244]  60 % UT
5. 1197294 (kG*k[5mC]*kA*d[5mC]*mU*dT*dT*dT*dA*d[5mC]*dA*dT*dT*kA*kG*kG; antisense) [Compound 1197294]  25 % UT

same assay, conditions: Table 51; Yap1 mRNA remaining as percent of untreated control (UT), SNU-449 cells, single dose

In order of rising “YAP1 (% UT)” value:
1. 1197305 (kA*k[5mC]*kT*d[5mC]*mU*dT*dA*dT*dA*dT*dG*dG*dT*kT*kT*kT; antisense) [Compound 1197305]  30 % UT
2. 1200787 (kA*kA*kA*dT*dT*mG*dT*d[5mC]*dT*d[5mC]*dA*dT*dG*k[5mC]*k[5mC]*kT) [Compound 1200787]  38 % UT
3. 1197254 (antisense kT*kT*kA*dG*mG*dA*dT*dG*d[5mC]*dA*dT*dG*dG*kT*kT*kT) [Compound 1197254]  51 % UT
4. 1197267 (kA*kT*kG*dT*mA*dA*dT*dA*dT*dT*dG*d[5mC]*dA*kA*kT*k[5mC]) [Compound 1197267]  62 % UT
5. 1200801 (kT*k[5mC]*kT*dA*dT*mA*dT*dT*dA*dG*dA*dG*dT*kA*kT*kG; antisense) [Compound 1200801]  77 % UT
6. 1197315 (kA*kA*k[5mC]*dT*mU*dT*dA*dA*dA*dG*dT*dG*dT*kA*kT*kG; antisense) [Compound 1197315]  116 % UT

same assay, conditions: Table 52; Yap1 mRNA, modified oligonucleotides targeting SEQ ID NO: 1 and 2

In order of rising “YAP1 (% UT)” value:
1. 1200806 (kT*kG*kA*dG*dG*mU*dA*dT*dA*dA*d[5mC]*dT*dG*kG*kG*k[5mC]; antisense) [Compound 1200806]  24 % UT
2. 1200870 (kA*k[5mC]*kT*dA*dA*mG*dT*dA*dA*dG*dG*dT*dT*kT*k[5mC]*k[5mC]; antisense) [Compound 1200870]  73 % UT

same assay, conditions: Yap1 mRNA, percent of untreated control; modified oligonucleotides targeting SEQ ID NO: 1 and 2; Table 47

In order of rising “YAP1 (% UT)” value:
1. 1198876 (kT*kA*dA*dA*dG*dT*dG*dT*dA*dT*dG*kT*e[5mC]*kA*eG*kA; antisense) [Compound 1198876]  31 % UT
2. 1197180 (antisense kA*kT*kG*dG*dA*dA*dA*dT*dT*dG*dT*d[5mC]*dT*k[5mC]*kA*kT) [Compound 1197180]  47 % UT
